Measurements taken from patent US6723716B1, “7-acylamino-3-heteroarylthio-3-cephem carboxylic acid antibiotics and prodrugs thereof” (Essential Therapeutics, Inc., priority 1999, dated 2004).
Converted amounts (≈) assume the structure as drawn. Where two headings read alike, the source gives them in different places.

How the values were obtained:
E. coli ATCC25992 = test: Broth microdilution MIC (NCCLS); type: cell-based; conditions: Escherichia coli
Method: (§1) Compounds were evaluated for antimicrobial activity against a panel of bacterial strains using a broth microdilution assay performed as recommended by the NCCLS (1). The minimum inhibitory concentration (MIC) was defined as the lowest concentration of drug which prevented the growth of the bacteria.
(§2) For this primary panel, the assay was performed in Mueller-Hinton Broth (MHB) with a final bacterial inoculum of 5×10^5 CFU/mL (from an early-log phase culture) and a final volume of 100 μL. Control drugs, including imipenem, vancomycin, Penicillin G, dicloxacillin (vs. MSSA ATCC29213 only), and new compounds were prepared at a concentration equivalent to 2-fold the desired final concentration. Dilution of compounds were prepared directly in the plates by serial 2-fold dilution using a multichannel pipette. Positive and negative growth control were included in each plate.
(§3) The bacterial inocula were prepared as follows. For each strain one isolated colony was used to inoculate a volume of 8 mL of Mueller-Hinton broth and these cultures were incubated overnight (20 h) at 35° C. in a shaking incubator. At the exception of Enterococcus strains, culture were then diluted 1:10 and allowed to grow for an additional one hour at 35° C. in a shaking incubator. The inocula were prepared by diluting the early log-phase (1 h) cultures 1:1000 with fresh Mueller-Hinton broth. E. faecium and E. faecalis were prepared by diluting overnight cultures 1:333 and 1:666, respectively, with fresh Mueller-Hinton broth. A volume of 50 μL of the inocula was added to each well. […] The exact inocula were determined by applying 10 μL of 10-fold serial dilution of the bacterial suspensions on TSA. After overnight incubation at 35° C., colony forming units were manually counted.
(§4) Microtiter plates were incubated during 24 h at 35° C. and were read using a microtiterplate reader (Molecular Devices) at 650 nm as well as by visual observation using a microtiterplate reading mirror.

E. faecalis ATCC 29212 = test: Broth microdilution MIC (NCCLS); type: cell-based; conditions: Enterococcus faecalis, ATCC29212
Method: as §1, §2, §3, §4

E. faecalis VanB (Van^R) = test: Broth microdilution MIC (NCCLS); type: cell-based; conditions: Enterococcus faecalis
Method: as §1, §2, §3, §4

E. faecium A491 (Amp^R) = test: Broth microdilution MIC (NCCLS); type: cell-based; conditions: Enterococcus faecium
Method: as §1, §2, §3, §4

E. faecium ATCC 35667 = test: Broth microdilution MIC (NCCLS); type: cell-based; conditions: Enterococcus faecium, ATCC35667
Method: as §1, §2, §3, §4

E. faecium VanA (Van^R) = test: Broth microdilution MIC (NCCLS); type: cell-based; conditions: Enterococcus faecium
Method: as §1, §2, §3, §4

P. aeruginosa ATCC 27853 = test: Broth microdilution MIC (NCCLS); type: cell-based; conditions: Pseudomonas aeruginosa, ATCC27853
Method: as §1, §2, §3, §4

[1] = test system: S. aureus 76 (Meth^R)(lac^+); test: Broth microdilution MIC (NCCLS); type: cell-based; conditions: Staphylococcus aureus
Method: as §1, §2, §3, §4

[2] = test system: S. aureus ATCC 13709 (Meth^S); test: Broth microdilution MIC (NCCLS); type: cell-based; conditions: Staphylococcus aureus
Method: as §1, §2, §3, §4

S. aureus ATCC 29213 = test: Broth microdilution MIC (NCCLS); type: cell-based; conditions: Staphylococcus aureus
Method: as §1, §2, §3, §4

[3] = test system: S. aureus ATCC 33593 (Meth^R); test: Broth microdilution MIC (NCCLS); type: cell-based; conditions: Staphylococcus aureus, ATCC33593
Method: as §1, §2, §3, §4

[4] = test system: S. aureus Col (Meth^R)(lac^−); test: Broth microdilution MIC (NCCLS); type: cell-based; conditions: Staphylococcus aureus
Method: as §1, §2, §3, §4

[5] = test system: S. aureus Col8A (Meth^S)(lac^−); test: Broth microdilution MIC (NCCLS); type: cell-based; conditions: Staphylococcus aureus
Method: as §1, §2, §3, §4

[6] = test system: S. aureus PC1 (Meth^S)(lac^+); test: Broth microdilution MIC (NCCLS); type: cell-based; conditions: Staphylococcus aureus
Method: as §1, §2, §3, §4

[7] = test system: S. aureus Spain #356 (Meth^R); test: Broth microdilution MIC (NCCLS); type: cell-based; conditions: Staphylococcus aureus, 24 h
Method: as §1, §2, §3, §4

[8] = test system: S. haemolyticus 05 (Meth^R); test: Broth microdilution MIC (NCCLS); type: cell-based; conditions: Staphylococcus haemolyticus
Method: as §1, §2, §3, §4

S. aureus ATCC29213 = test: Human serum binding effect: MIC with and without human serum; type: cell-based, Staphylococcus aureus; conditions: 1:1 human serum:MHB
Method in brief: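 Serum binding was estimated as the ratio of S. aureus ATCC29213 MIC in 1:1 human serum:Mueller-Hinton broth to MIC without serum. Compounds were serially 2-fold diluted, and wells received an early-log-phase inoculum at 1×10^6 CFU/mL final. Inoculum size was checked by colony counts on TSA after overnight incubation at 35 °C.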

human serum proteins = test: Serum binding determination by ultrafiltration/HPLC; type: in vitro ADME; conditions: by HPLC
Method: The more accurate measurement of binding of selected cephalosporin compounds was performed using HPLC as described below.
1. Serum is placed in a shaking water bath preheated to 37±2° C. for 5 to 10 minutes to heat serum to 37° C. Serum pH is measured and recorded, while serum is 37° C. using pH paper. Measurements are taken twice, 3 minutes apart. If the pH is not 7.4±0.4 then the pH is adjusted by blowing 5% CO2/95% O2 over the serum. After blowing for several minutes, serum is heated to 37° C. and measurements are taken twice, 3 minutes apart using pH paper to determine the pH. Store at 4° C. The serum is stable for 7 days. Always check the pH before each use.
2. Before any centrifugation, the centrifuge temperature must be adjusted to 25±2° C. Preheat the centrifuge by spinning for 45 minutes at the same speed to be used in the assay (1900 g) with two tubes of water in the rotor and the temperature set to 25° C. When the centrifuge stops immediately check the temperature of the tubes of water with a calibrated thermometer. The temperature of the tubes of water must be 25±2° C. […] Continue spinning and measuring the temperature and adjusting the setting until the temperature is 25±2° C.
3. Prepare blank ultrafiltrate by pipetting blank pH 7.4 serum into an Amicon Centrifree Micropartition devices, centrifuge: fixed angle rotor, 1900 g, 25° C. for 20 minutes. Heat ultrafiltrate in a shaking water bath preheated to 37° C. Measure ultrafiltrate pH and adjust to the pH of the serum (7.4±0.2).
4. Pipette 190 ul of blank ultrafiltrate into a set of labeled 1.7 mL polypropylene microfuge tubes for 3 of each level. Pipette 10 μL of the appropriate standard stock 50, 200, 1000 μg/mL to make standards 2.5, 10, and 50 μg/mL respectively. Vortex each tube well. One set of the standard samples are mixed 1:1 with 0.2 M acetic acid and injected onto the HPLC (MSTD). These samples are the membrane standards and will be used to compare to the other standards. Pipette 190 ul of ultrafiltrate and spike with 10 ul of whatever solution (e.g. water) the standards are prepared in to make the zero standard.
5. Pipette 475 μL of blank heated pH 7.4 serum into a set of labeled 1.7 mL polypropylene microfuge tubes for 2 of each (Serum A and Serum B). Pipette 25 μL of the 1000 μg/mL standard stock into each tube, vortex each tube well to make serum standard 50 μg/mL. Remove 100 μL of serum and deproteinate with 200 μL 4% TCA while vortexing to make serum time 0 (serum 50, T0). Place serum tubes in a shaking water bath at 37° C. for 10 minutes. Pipet 100 μL of serum out and deproteinate with 200 μL 4% TCA, to make serum time 10 min (serum 50, T10). Pipet 200 ul serum standard 50 μg/mL into an ultrafiltration device, which is not treated with TCA, to determine free drug in samples (Rat Serum 50).
6. Transfer serum and standard samples to labeled Amicon Centrifree Micropartition filters, and centrifuge: 1900 g, 25° C. for 10 minutes. The extracted serum samples (T0 and T10) are spun down and supernatant is loaded into HPLC vials.
7. 100 μL of ultrafiltrate sample and 100 μL of 0.2 M acetic acid were mixed together to stabilize the compound in ultrafiltrate.
8. Transfer entire stabilized ultrafiltrate solution to a labeled autoinjector HPLC vial cap with Teflon septa, and inject on HPLC.
Peak height or area is used in a weighted linear regression.

[9] = ATCC13709, S. aureus ATCC 13709 (Meth^S), read-out: MIC
[10] = ATCC29213, S. aureus ATCC 29213, Mueller-Hinton broth, 24 h at 35° C., read-out: MIC

Compound	MIC (E. coli ATCC25992) [µg/mL]	MIC (E. faecalis ATCC 29212) [µg/mL]	MIC (E. faecalis VanB (Van^R)) [µg/mL]	MIC (E. faecium A491 (Amp^R)) [µg/mL]	MIC (E. faecium ATCC 35667) [µg/mL]	MIC (E. faecium VanA (Van^R)) [µg/mL]	MIC (P. aeruginosa ATCC 27853) [µg/mL]	MIC [1] [µg/mL]	MIC [2, 9] [µg/mL]	MIC (S. aureus ATCC 29213; [10]) [µg/mL]	MIC [3] [µg/mL]	MIC [4] [µg/mL]	MIC [5] [µg/mL]	MIC [6] [µg/mL]	MIC [7] [µg/mL]	MIC [8] [µg/mL]	Human serum binding effect (ratio of MIC value determined with and without human serum added) (S. aureus ATCC29213)	MIC ([2]; ATCC13709) [µg/mL]	MIC (S. aureus ATCC 29213; ATCC29213, 24 h) [µg/mL]	Serum Binding human (% of compound bound to serum) (human serum proteins) [%]
NCCNc1nc(CSCCN)c(SC2=C(C(=O)O)N3C(=O)[C@@H](NC(=O)/C(=N\O)c4nc(N)sc4Cl)[C@H]3SC2)s1 [Cmpd 16, (7R)-7-[(Z)-2-(2-amino-5-chlorothiazol-4-yl)-2-(hydroxyimino)acetamido]-3-[4-(2-aminoethylthiomethyl)-2-aminoethylamino-1,3-thiazol-5-ylthio]-3-cephem-4-carboxylic acid]	4 (≈ 6 µM)	0.06 (≈ 0.0901 µM)	0.06 (≈ 0.0901 µM)	16 (≈ 24 µM)	0.5 (≈ 0.75 µM)	4 (≈ 6 µM)	1 (≈ 1.5 µM)	1 (≈ 1.5 µM)	0.13 (≈ 0.195 µM)	0.13 (≈ 0.195 µM)	1 (≈ 1.5 µM)	1 (≈ 1.5 µM)	0.25 (≈ 0.375 µM)	0.13 (≈ 0.195 µM)	1 (≈ 1.5 µM)	1 (≈ 1.5 µM)	1	–	–	–
NCCSCc1ccncc1SC1=C(C(=O)O)N2C(=O)[C@@H](NC(=O)/C(=N\O)c3cccc(N)n3)[C@H]2SC1 [Cmpd 28, (7R)-7-[(Z)-2-(2-aminopyrid-6-yl)-2-(hydroxyimino)acetamido]-3-[4-(2-aminoethylthiomethyl)pyrid-3-ylthio]-3-cephem-4-carboxylic acid]	32 (≈ 57 µM)	0.5 (≈ 0.89 µM)	2 (≈ 3.56 µM)	> 32	4 (≈ 7.12 µM)	8 (≈ 14.2 µM)	> 32	8 (≈ 14.2 µM)	0.13 (≈ 0.231 µM)	0.5 (≈ 0.89 µM)	8 (≈ 14.2 µM)	8 (≈ 14.2 µM)	0.25 (≈ 0.445 µM)	0.5 (≈ 0.89 µM)	8 (≈ 14.2 µM)	16 (≈ 28.5 µM)	–	–	–	–
NCCSCc1nc(Cl)sc1SC1=C(C(=O)O)N2C(=O)[C@@H](NC(=O)/C(=N\O)c3cccc(N)n3)[C@H]2SC1 [Cmpd 29, (7R)-7-[(Z)-2-(2-aminopyrid-6-yl)-2-(hydroxyimino)acetamido]-3-[2-chloro-4-(2-aminoethylthiomethyl)-1,3-thiazol-5-ylthio]-3-cephem-4-carboxylic acid]	16 (≈ 26.6 µM)	0.25 (≈ 0.415 µM)	0.5 (≈ 0.83 µM)	> 32	2 (≈ 3.32 µM)	4 (≈ 6.64 µM)	> 32	1 (≈ 1.66 µM)	–	–	1 (≈ 1.66 µM)	1 (≈ 1.66 µM)	0.125 (≈ 0.208 µM)	0.25 (≈ 0.415 µM)	2 (≈ 3.32 µM)	2 (≈ 3.32 µM)	–	0.125 (≈ 0.208 µM)	0.125 (≈ 0.208 µM)	97
